Like-named read-outs stand apart in the source and are kept apart here.
Experiments:
P38 [1] = target: T1, P38 (Homo sapiens, UniProt Q16539); assay: p38 inhibition in-vitro enzyme assay; format: biochemical; settings: recombinant 6×His-p38
Protocol: Purified recombinant 6×His-p38 and GST-ATF2 (both expressed in Baculovirus) were served as enzyme and substrate in our p38 inhibition assay. The enzyme reaction was performed in the anti-GST antibody pre-coated 96-well ELISA plate.
A 96-well ELISA plate was coated with 100 μl/well of anti-GST antibody (from Amersham) at a concentration of […] and incubated overnight at 4° C. The ELISA plate was blocked with 100 μl/well of 1% BSA at 25° C. for at least 2 hours, then the plate was washed with 300 μl PBST. The enzyme reaction was started by adding 10 μl of p38 recombinant protein (0.05 nM in final concentration), 10 μl of compound in desired concentration, 10 μl of substrates (670 μM ATP, 200 nM GST-ATF2 in final concentration) and 70 μl of reaction buffer (50 mM HEPES, pH 7.4, 100 mM NaCl, 10 mM MgCl2) and the mixture was incubated at 37° C. for 30 min. Washing the reaction plate with 3×300 μl/well of PBST stopped the enzyme reaction. Detection of the phosphorylated ATF2 substrate was done by the addition of 100 μl of anti-Pi-ATF2 antibody (from Cell Signaling) at a 1:200 dilution. The mixture was incubated at 25° C. for 30 min. A solution of 100 μl of HRP-conjugated goat anti-rabbit antibody (from Pierce) at a 1:250 dilution was added and the mixture and incubated at 25° C. for 30 min. The plate was washed with 6×300 μI PBST and 100 μl of OPD substrate (from Sigma) was then added. The mixture was incubated at 25° C. for 10 min. before adding 100 μl of 3 N H2SO4. The plate was read at 490 nm.
The % inhibition of each test compound was calculated by the following formula: % inhibition=[1−(sample−BKG)/(CTRL−BKG)]×100. The IC50 of each test compound was determined by a triplicate-8 point dose titration curve by Prism GraphPad program. […]

TNF-α [2] = assay: In-vitro whole cell assay for TNF-α inhibition (LPS-stimulated PBMC, ELISA); format: cell-based; settings: TNF-α by ELISA
In short: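 Read-out: ELISA for TNF-α in supernatants after overnight 37° C LPS challenge (stock 200 ng/mL, RPMI/1% FCS). Cells: Ficoll-isolated human PBMC at 1.67×10^6/mL, exposed to test compound for 1 h at 37° C beforehand. Run in duplicate.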

TNF-α [3] = assay: In vivo rodent assay for inhibition of LPS-induced TNF-α production; set-up: species or system Mice (BALB/cJ females); settings: Mus musculus, po, 10 mg/kg oral
In short: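 Female BALB/cJ mice or male Lewis rats, fasted 30 min, received compound orally (mg/kg) at various times before intraperitoneal LPS at 1 mg/kg. Blood was collected by cardiac puncture 1 h after LPS, and serum TNF-α was quantified by species-specific ELISA.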

P38 [4] = target: T1, P38; assay: P38 cell, 1 μM LJ; format: cell-based; set-up: unit not given here
[5] = 0.5 h, 0.5 h, read-out: Mouse 10 mg/kg % inhib 0.5 h
[6] = 2 h, 2 h, read-out: Mouse 10 mg/kg % inhib 2 h

T1 sequence (Q16539 whole entry): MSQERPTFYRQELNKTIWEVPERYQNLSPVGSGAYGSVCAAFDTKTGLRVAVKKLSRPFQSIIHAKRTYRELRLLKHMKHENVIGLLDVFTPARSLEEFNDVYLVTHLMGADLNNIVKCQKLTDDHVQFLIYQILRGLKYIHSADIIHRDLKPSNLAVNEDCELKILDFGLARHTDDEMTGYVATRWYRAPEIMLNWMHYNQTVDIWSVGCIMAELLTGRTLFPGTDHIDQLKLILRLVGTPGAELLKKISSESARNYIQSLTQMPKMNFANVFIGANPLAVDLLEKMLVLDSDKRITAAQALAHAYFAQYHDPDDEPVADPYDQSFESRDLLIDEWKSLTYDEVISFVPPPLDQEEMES

Compound	IC50 (P38 [1])	IC50 (TNF-α [2])	inhibition in vivo at 10 mg/kg (TNF-α [3]; [5])	P38 cell 1 μM LJ (P38 [4])	inhibition in vivo at 10 mg/kg (TNF-α [3]; [6])
Fc1ccc(-c2c[nH]c(CN3CCNCC3)c2-c2ccncc2)cc1 [Cpd 56]	856 nM	63 nM	-41%		
CCCc1[nH]cc(-c2ccc(F)cc2)c1-c1ccnc(N[C@@H](C)COC)n1 [Cpd 61]	5 nM	86 nM	-35%	91	
C[C@H](Nc1nccc(-c2cn(CCN3CCOCC3)cc2-c2ccc(F)cc2)n1)c1ccccc1 [Cpd 68]	7 nM	4 nM	-21%	83	
Fc1ccc(-c2cn3c(c2-c2ccncc2)CN(Cc2ccccc2)CC3)cc1 [Cpd 29, 7-(4-Fluorophenyl)-1,2,3,4-tetrahydro-2-(phenylmethyl)-8-(4-pyridinyl)-pyrrolo[1,2-a]pyrazine]	1660 nM	11 nM	-6%		
CCOC(=O)c1[nH]cc(-c2ccc(F)cc2)c1-c1ccncc1 [Cpd 54]	> 10000 nM	145 nM			
CCCc1[nH]cc(-c2ccc(F)cc2)c1-c1ccnc(N[C@@H](C)c2ccccc2)n1 [Cpd 53]	1440 nM	10 nM	-19%		
CCn1cc(-c2ccncc2)c(-c2ccc(F)cc2)c1C(=O)OC [Cpd 85]		108 nM	53%	4	
CNC(=O)c1c(-c2ccc(F)cc2)c(-c2ccncc2)cn1C [Cpd 76]		1480 nM	67%	18	78%
C[C@H](Nc1nccc(-c2c[nH]cc2-c2ccc(F)cc2)n1)c1ccccc1 [Cpd 67]	55 nM	3 nM		90	
COC(=O)c1c(-c2ccc(F)cc2)c(-c2ccncc2)c(N)n1C [Cpd 9, 5-Amino-3-(4-fluorophenyl)-1-methyl-4-(4-pyridinyl)-1H-pyrrole-2-carboxylic acid methyl ester]		51 nM	53.9%	12	
COC(=O)C(=O)c1c(-c2ccc(F)cc2)c(-c2ccncc2)c(N2CCNCC2)n1C [Cpd 108]		28 nM	52%	15	
COC(=O)c1c(-c2ccc(F)cc2)c(-c2ccncc2)c(N2CCCC2)n1C [Cpd 80]		17 nM	-38%	32	
CC(=O)c1c(-c2ccc(F)cc2)c(-c2ccncc2)c(N2CCNCC2)n1C [Cpd 91]		40 nM	39%	29	
CCOC(=O)c1c(-c2ccc(C)cc2)c(-c2ccncc2)c(Br)n1C [Cpd 79]		736 nM	-76%	9	
CCCc1c(-c2ccnc(N[C@@H](C)COC)n2)c(-c2ccc(F)cc2)cn1C(=O)OC(C)(C)C [Cpdd 58]	1350 nM	50 nM			
Cn1c(C(=O)OC(C)(C)C)c(-c2ccc(F)cc2)c(-c2ccncc2)c1N1CCNCC1 [Cpd 94]		420 nM	25%	10	
O=C(NCc1ccccc1)c1[nH]cc(-c2ccc(F)cc2)c1-c1ccncc1 [Cpd 51]	> 10000 nM	14 nM	-60%		

Compound	IC50 (P38 [1])	IC50 (TNF-α [2])	inhibition in vivo at 10 mg/kg (TNF-α [3]; [5])	P38 cell 1 μM LJ (P38 [4])	inhibition in vivo at 10 mg/kg (TNF-α [3]; [6])
COC(=O)c1c(-c2ccc(F)cc2)c(-c2ccncc2)c(N(C)CCN2CCOCC2)n1C [Cpd 11, 3-(4-Fluorophenyl)-1-methyl-5-[methyl[2-(4-morpholinyl)ethyl]amino]-4-(4-pyridinyl)-1H-pyrrole-2-carboxylic acid methyl ester]	> 10000 nM	38 nM	66%		
COC(=O)c1c(-c2ccc(F)cc2)c(-c2ccncc2)c(N2CCN(C)CC2)n1C [Cpd 10, 3-(4-Fluorophenyl)-1-methyl-5-(4-methyl-1-piperazinyl)-4-(4-pyridinyl)-1H-pyrrole-2-carboxylic acid methyl ester]		95 nM	89%	1	
CN(C)C(=O)c1c(-c2ccc(F)cc2)c(-c2ccncc2)c(Br)n1C [Cpd 97]		301 nM	-41%	1	
Nc1[nH]cc(-c2ccc(F)cc2)c1-c1ccncc1 [Cpd 66]	905 nM	905 nM		6	
Cn1c(Br)c(-c2ccncc2)c(-c2ccc(F)cc2)c1C(=O)OC(C)(C)C [Cpd 82]		1890 nM	-7%	8	
COC(=O)c1c(-c2ccc(F)cc2)c(-c2ccncc2)c(N2CCOCC2)n1C [Cpd 81]		47 nM	-41%	12	
CCN1CCCC1CNc1c(-c2ccncc2)c(-c2ccc(F)cc2)c(C(=O)OC)n1C (stereo not drawn) [Cpd 109]	6180 nM	7750 nM			
COC(=O)c1c(-c2ccc(F)cc2)c(-c2ccncc2)c(N=C(c2ccccc2)c2ccccc2)n1C [Cpd 98]		52 nM	-49%	−2	
OCCNCc1[nH]cc(-c2ccc(F)cc2)c1-c1ccncc1 [Cpd 63]	> 2000 nM	148 nM		8	
CC(=O)c1c(-c2ccc(F)cc2)c(-c2ccncc2)c(N2CCN(C(C)=O)CC2)n1C [Cpd 92]		43 nM	61%	6	28%
CNC(=O)c1c(-c2ccc(F)cc2)c(-c2ccncc2)c(Br)n1C [Cpd 84]		543 nM	53%	11	
CN(C)C(=O)c1c(-c2ccc(F)cc2)c(-c2ccncc2)cn1C [Cpd 95]		1380 nM	33%	21	
O=C1c2c(-c3ccncc3)c(-c3ccc(F)cc3)cn2C(=O)N1Cc1ccccc1 [Cpd 50]	> 10000 nM	26 nM	51%		
CN(Cc1ccccc1)Cc1[nH]cc(-c2ccc(F)cc2)c1-c1ccncc1 [Cpd 73]		91 nM	37%	78	
CN(C)C(=O)c1c(-c2ccc(F)cc2)c(-c2ccncc2)c(N2CCNCC2)n1C [Cpd 101]	> 10000 nM	120 nM		13	
Cn1c(C(=O)C2CC2)c(-c2ccc(F)cc2)c(-c2ccncc2)c1N1CCN(C(=O)C2CC2)CC1 [Cpd 107]		36 nM		11	
Fc1ccc(-c2c[nH]c(CN3CCc4ccccc4C3)c2-c2ccncc2)cc1 [Cpd 72]		40 nM	63%	32	
